From US6338946B1, “Method for assaying immunosuppressant” (Fujisawa Pharmaceutical Co., Ltd., priority 1994, dated 2002)

How the values were obtained:
[1] = test system: mixed lymphocyte reaction; assay: in vitro mixed lymphocyte reaction (MLR) test; format: cell-based; details: for Immunosuppressive activity (in words): MLR; for Immunosuppressive activity (MLR) (relative %): relative to FK506 = 100
Procedure: (2) The immunosuppressive activity was measured by the well-known in vitro mixed lymphocyte reaction (MLR) test described, for example, in European Patent Application EP-0184162-A2, page 67.

[2] = target: T1, complex of FKBP-12, bovine calcineurin, bovine calmodulin and calcium ion (UniProt P48452+P62942+P63099); assay: Complex formation assay with solid-phase FKBP-12, detected by anti-calcineurin enzyme immunoassay (fluorometry); format: binding, human FKBP-12; bovine calcineurin and calmodulin; details: for Concentration dependence of fluorescence intensity (in words): Table 1 concentration series; for Complex forming activity (relative %): relative to FK506 = 100, calculated from Table 1 data
T1 construct: made in house; host or cells: E. coli HB101 (vector pFKBP333, tryptophan promoter)
Procedure: The plate was then washed 3 times with the same phosphate buffer solution as used in Preparation 1. FKBP-12 was thus bound to each well. An assay buffer (300 μl) having the composition shown below was added to each well and, after 15 minutes, it was removed, to block residual protein binding sites in each well. […] A solution (5 mg/ml) of a crude product, prepared by the conventional method, in 20 mM Tris-hydrochloride (pH 7.0) was 40-fold diluted with the above-mentioned assay buffer. Commercial bovine calmodulin was appropriately diluted with the above-mentioned assay buffer (to give a final concentration of 95 nM in the well). A methanol solution (1 mg/ml) of FK506 was appropriately diluted with the above-mentioned assay buffer. (3) Each well was washed (4 times) with the same buffer as the above-mentioned assay buffer except that it was free of bovine serum albumin and, then, an appropriate dilution (100 μl), in the assay buffer, of a rabbit polyclonal antibody recognizing the calcineurin Aα chain as obtained by the known method described, for example, in J. Neurochem., 58, 1643-1651 (1992) was added to each well, and the reaction was allowed to proceed at room temperature for 1 hour. (4) Each well was washed (4 times) with the same buffer as the above-mentioned assay buffer except that it was free of bovine serum albumin and, then, an appropriate dilution (100 μl), in the assay buffer, of alkaline phosphatase-labeled anti-rabbit IgG (Vector Laboratories) was added to each well. (5) Each well was washed (4 times) with the same buffer as the assay buffer except that it was free of bovine serum albumin and, then, 200 μl of a 4-methylumbelliferyl phosphate (hereinafter, 4-MU) substrate solution (1 mM), prepared as described below, was added to each well and, after the lapse of 20 minutes at room temperature, fluorometry (excitation wavelength 360 nm; emission wavelength 460 nm) was carried out using Cytofluor 2350 (trademark, Millipore Co. Ltd, USA). […] Ltd) was prepared with water and further diluted with a buffer solution (10 mM, pH 10.0) comprising diethanolamine (0.7 ml/l) and magnesium chloride hexahydrate (0.1 g/l) to give a 1 mM 4-MU substrate solution. Using the metabolites M-II and M-III shown below, which are already known as metabolites obtainable upon treatment of FK506 with rat liver microsome, as described, for example, in Drug Metabolism and Disposition, 21 (6), 971-977, quantitative analysis was carried out in the same manner as in Example 1.

FKBP-12 = FKBP-12 (Homo sapiens, UniProt P62942); assay: FKBP-12 binding activity measurement using 3H-dihydro-FK506; details: for FKBP-12 binding activity (relative %): relative to FK506 = 100
Procedure: (1) The FKBP-12 binding activity measurement was carried out in the same manner as described in Clinical Chemistry, 38/7, 1307-1310 (1992), using ^3H-dihydro-FK506, FKBP-12, dextran charcoaled, etc.

Chain of FKBP-12 (P62942 whole entry): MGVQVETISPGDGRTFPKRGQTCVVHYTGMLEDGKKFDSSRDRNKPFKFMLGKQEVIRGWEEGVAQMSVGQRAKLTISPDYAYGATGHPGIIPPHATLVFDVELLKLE

| Detection by the complex assay method (in words) [2] | Complex forming activity (relative %) [2] [relative %] | FKBP-12 binding activity (relative %) (FKBP-12) | FKBP-12 binding activity (in words) (FKBP-12) | SMILES | Immunosuppressive activity (in words) [1] | Immunosuppressive activity (MLR) (relative %) [1] [relative %] | Concentration dependence of fluorescence intensity (in words) [2] |
| --- | --- | --- | --- | --- | --- | --- | --- |
| can be detected | 100 | 100 |  | C=CC[C@@H]1/C=C(\C)C[C@H](C)C[C@H](OC)[C@H]2O[C@@](O)(C(=O)C(=O)N3CCCC[C@H]3C(=O)O[C@H](/C(C)=C/[C@@H]3CC[C@@H](O)[C@H](OC)C3)[C@H](C)[C@@H](O)CC1=O)[C@H](C)C[C@@H]2OC [FK506, 17-Allyl-1,14-dihydroxy-12-[2-(4-hydroxy-3-methoxycyclohexyl)-1-methylvinyl]-23,25-dimethoxy-13,19,21,27-tetramethyl-11,28-dioxa-4-azatricyclo[22.3.1.0^4,9]octacos-18-ene-2,3,10,16-tetraone] | have immunosuppressive activity | 100 | give fluorescence intensities depending on their concentrations |
| is not detected | 0 | 116.0 | has FKBP-12 binding activity | C=CCC1/C=C(\C)CC(C)CC(O)C2OC(O)(C(=O)C(=O)N3CCCCC3C(=O)OC(/C(C)=C/C3CCC(O)C(C)C3)C(C)C(O)CC1=O)C(C)CC2OC (stereo not shown) [M-III] | has no immunosuppressive activity | 0 | does not give concentration-dependent values |
| can be detected | 79.7 | 14.2 |  | C=CCC1/C=C(\C)CC(C)CC(OC)C2OC(O)(C(=O)C(=O)N3CCCCC3C(=O)OC(/C(C)=C/C3CCC(O)C(O)C3)C(C)C(O)CC1=O)C(C)CC2OC (stereo not shown) [M-II] | have immunosuppressive activity | 100 | give fluorescence intensities depending on their concentrations |
